Data as given in ChEMBL document CHEMBL3351608, “2-Phenylindole and Arylsulphonamide: Novel Scaffolds Bactericidal against Mycobacterium tuberculosis” (ACS Med Chem Lett, 2014).
≈ marks a conversion by molar mass, not a printed value.

How the values were obtained:
Test in all cases: microbe, parasite or virus in culture
Details in all cases: variant bovis BCG, 3 h
[1] = test system: Mycobacterium tuberculosis
[2] = test system: Mycobacterium tuberculosis; remark: listed apart in the source
[3] = test system: Mycobacterium tuberculosis; remark: listed apart in the source

Row | Structure (SMILES) | IC50 [1] [µg/mL] | IC50 [2] [µg/mL] | IC50 [3] [µg/mL]
1 | C[C@@H]1CN(c2c(F)c(N)c3c(=O)c(C(=O)O)cn(C4CC4)c3c2F)C[C@H](C)N1 [SPARFLOXACIN] | 7.3 (≈ 18.6 µM) | 11.4 (≈ 29.1 µM) | 16.7 (≈ 42.6 µM)
2 | O=C(N[C@H](CO)[C@H](O)c1ccc([N+](=O)[O-])cc1)C(Cl)Cl [CHLORAMPHENICOL] | – | 5.6 (≈ 17.3 µM) | –
3 | CO[C@H]1/C=C/O[C@@]2(C)Oc3c(C)c(O)c4c(O)c(c(/C=N/N5CCN(C)CC5)c(O)c4c3C2=O)NC(=O)/C(C)=C\C=C\[C@H](C)[C@H](O)[C@@H](C)[C@@H](O)[C@@H](C)[C@H](OC(C)=O)[C@@H]1C [RIFAMPIN] | 2.9 (≈ 3.52 µM) | 2 (≈ 2.43 µM) | –
